This passage reports IC50 results from patent publication US7732412B2, “Methods of treatment using novel LHRH antagonists having improved solubility properties” (Zentaris GmbH, priority 1999, dated 2010).

pIC50: −log10 of the molar value. Numbered stars: 1 amine (or outer) side, 2 acyl side, 3 side chain; on linkers, the order of the positions; unused ones are H or OH. Square brackets hold non-standard residues; d marks the D form. Side chains are listed from the residue outwards. Peptide text beside a SMILES is read from it. * marks the point of attachment. Triazole(1,2,4-3-CO,5-NH) = O=C(c1n[nH]c(N[*:1])n1)[*:2]; Propanoyl(3-(4-F-phenyl)) = O=C(CCc1ccc(F)cc1)*; NH(4-amidinophenyl) = N=C(N)c1ccc(N*)cc1; dPhe(4-Cl) = N[C@H](Cc1ccc(Cl)cc1)C(=O)O; d1Nal = N[C@H](Cc1cccc2ccccc12)C(=O)O; d2Nal = N[C@H](Cc1ccc2ccccc2c1)C(=O)O; Lys(iPr) = CC(C)NCCCC[C@H](N)C(=O)O; NMeY = CN[C@@H](Cc1ccc(O)cc1)C(=O)O; d3Pal = N[C@H](Cc1cccnc1)C(=O)O; Suc = O=C(CCC(=O)[*:2])[*:1]; Nle = CCCC[C@H](N)C(=O)O; Sar = CNCC(=O)O

The target in the assay is T1, human LHRH receptor (Homo sapiens, UniProt P30968).
T1 sequence (P30968 1-328): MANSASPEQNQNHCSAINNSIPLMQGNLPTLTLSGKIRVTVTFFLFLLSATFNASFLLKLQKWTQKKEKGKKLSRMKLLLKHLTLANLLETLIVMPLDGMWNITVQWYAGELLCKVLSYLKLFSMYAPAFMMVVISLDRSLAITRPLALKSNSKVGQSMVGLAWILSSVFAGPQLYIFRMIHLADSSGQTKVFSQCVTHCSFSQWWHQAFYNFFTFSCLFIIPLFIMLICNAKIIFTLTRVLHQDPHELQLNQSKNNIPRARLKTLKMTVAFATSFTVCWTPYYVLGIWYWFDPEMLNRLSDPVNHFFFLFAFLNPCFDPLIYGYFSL
The assay can be described thus: functional assay for antagonistic activity, fos-Luc luciferase reporter gene, stimulation with 1 nM [D-Trp6] LHRH. As to conditions: cells stimulated with 1 nM [D-Trp6] LHRH for 6 h; bracket = number of independent experiments. Set-up: expressed in transfected cells. In kind it is cell-based. The procedure: The assay for the functional characterization of antagonistic analogs of LH-RH was carried out, with some modifications, as described in Beckers et al., “Characterization of gonadotropin-releasing hormone analogs based on a sensitive cellular luciferase reporter gene assay” (1997) Analyt. Biochem. 251, 17-23. The assay uses a reporter gene made by fusing the c-fos immediate-early gene promoter to a DNA sequence encoding luciferase (Luc). A recombinant cell line that expresses the human LH-RH. receptor is stably transfected with the fos-Luc reporter gene. Transcription of the fos-Luc fusion gene and synthesis of the Luc protein is induced in the cells in a dose-dependent manner by LH-RH and other LH-RH agonists that bind and signal through the human LH-RH receptor. Peptide LH-RH antagonists such as the compounds of the invention bind to cellular LH-RH receptors and inhibit this stimulation. The antagonistic potency (IC50) of peptide LH-RH antagonists as determined by the assay generally correlates well with the binding affinity (KD) of the LH-RH antagonists for LH-RH receptor as determined from ligand binding experiments.
Cells containing the fos-Luc reporter gene that express the human LH-RH receptor were cultured for 24 h in microtitre plates using DMEM with additives and 1% (v:v) FCS (10,000 cells per well). The cells were then stimulated with 1 nM [D-Trp^6] LHRH for 6 h. Peptide LH-RH antagonist compounds according to the invention were added before the stimulation, and the cells were lysed at the end for quantification of the cellular Luc activity. The calculation of the IC50 values from dose-effect curves was carried out by non-linear regression analysis using the Hill model (Programme EDX 2.0 from C. Grunwald, Arzneimittelwerk Dresden).
The quantification of the Luc activity was carried out in duplicate essentially as described (Promega Technical Bulletins #101/161) using the respective luciferase assay system (Promega E4030). Owing to addition of coenzyme A (CoA), an oxidation of luciferyl-CoA takes place with advantageous kinetics. After the removal of the culture medium from the microtitre plate, the cells were lysed by addition of 100 μl of lysis buffer (25 mM tris-phosphate pH 7.8, 2 mM dithiothreitol, 2 mM 1,2-diaminocyclohexane-N,N,N′,N′-tetraacetic acid (CDTA), 10% (v:v) glycerol, 1% (v:v) Triton X-100). After incubation at room temperature for 15 min, 10 μl of cell lysate were transferred into a white microtitre plate suitable for luminometric detection (Dynatech). The enzymatic reaction was initiated by addition of 50 μl of assay buffer (20 mM tricine pH 7.8, 1.07 mM (MgCO3)4Mg(OH)2, 2.67 mM MgSO4, 0.1 mM ethylene-diaminetetraacetic acid (EDTA), 33.3 mM dithiothreitol, 270 μM coenzyme A, 470 μM glow-worm (Photinus pyralis) luciferin, 530 μM rATPNa2). After one minute, the luminescence was determined for a total time of one second with a signal half-life of five minutes using the EG&G Berthold MicroLumat LB 96 P.
For orientation: A reporter such as luciferase makes a cellular process visible.
For orientation: pIC50 means the IC50 on a negative log10 scale, so that one unit is a factor of ten. `CC(C)C[C@H](NC(=O)[C@@H](CCCCNC(=O)c1nc(N)n[nH]1)NC(=O)[C@H](Cc1ccc(O)cc1)N(C)C(=O)[C@H](CO)NC(=O)[C@@H](Cc1cccc2ccccc12)NC(=O)CCc1ccc(F)cc1)C(=O)N[C@@H](CCCNC(=N)N)C(=O)N1CCC[C@H]1C(=O)N[C@H](C)C(N)=O` [Example 6, 3-(4-Fluorophenyl)propionyl-D-Nal(1)^1-Ser^4-N-Me-Tyr^5-D-Lys (Atz)^6-Leu^7-Arg^8-Pro^9-D-Ala^10-NH2] ({Propanoyl(3-(4-F-phenyl))}-[d1Nal]S[NMeY][dK](Triazole(1,2,4-3-CO,5-NH))LRP[dA]-NH2) had a pIC50 of 9.66.
The figure for `CCCC[C@H](NC(=O)[C@@H](CCCCNC(=O)CCC(=O)Nc1ccc(C(=N)N)cc1)NC(=O)[C@H](Cc1ccc(O)cc1)N(C)C(=O)[C@H](CO)NC(=O)[C@@H](Cc1cccnc1)NC(=O)[C@@H](Cc1ccc(Cl)cc1)NC(=O)[C@@H](Cc1ccc2ccccc2c1)NC(C)=O)C(=O)N[C@@H](CCCNC(=N)N)C(=O)N1CCC[C@H]1C(=O)N(C)CC(N)=O` [Example 7, Ac-D-Nal(2)^1-D-Cpa^2-D-Pal(3)^3-Ser^4-N-Me-Tyr^5-D-Lys(B)^6-Nle^7-Arg^8-Pro^9-Sar^10-NH2] (Ac-[d2Nal][dPhe(4-Cl)][d3Pal]S[NMeY][dK]([Suc-NH(4-amidinophenyl)])[Nle]RP[Sar]-NH2) is 8.89; for `CCCC[C@H](NC(=O)[C@@H](CCCCNC(=O)CCC(=O)Nc1ccc(C(=N)N)cc1)NC(=O)[C@H](Cc1ccc(O)cc1)N(C)C(=O)[C@H](CO)NC(=O)[C@@H](Cc1cccnc1)NC(=O)[C@@H](Cc1ccc(Cl)cc1)NC(=O)[C@@H](Cc1ccc2ccccc2c1)NC(C)=O)C(=O)N[C@@H](CCCNC(=N)N)C(=O)N1CCC[C@H]1C(=O)N[C@H](C)C(N)=O` [Example 8, Ac-D-Nal(2)^1-D-Cpa^2-D-Pal(3)^3-Ser^4-N-Me-Tyr^5-D-Lys(B)^6-Nle^7-Arg^8-Pro^9-D-Ala^10-NH2] (Ac-[d2Nal][dPhe(4-Cl)][d3Pal]S[NMeY][dK]([Suc-NH(4-amidinophenyl)])[Nle]RP[dA]-NH2) it is 8.85; for `CCCC[C@H](NC(=O)[C@@H](CCCCNC(=O)CCC(=O)Nc1ccc(C(=N)N)cc1)NC(=O)[C@H](Cc1ccc(O)cc1)N(C)C(=O)[C@H](CO)NC(=O)[C@@H](Cc1cccnc1)NC(=O)[C@@H](Cc1ccc(Cl)cc1)NC(=O)[C@@H](Cc1ccc2ccccc2c1)NC(C)=O)C(=O)N[C@@H](CCCCNC(C)C)C(=O)N1CCC[C@H]1C(=O)N(C)CC(N)=O` [Example 9, Ac-D-Nal(2)^1-D-Cpa^2-D-Pal(3)^3-Ser^4-N-Me-Tyr^5-D-Lys(B)^6-Nle^7-Lys(iPr)^8-Pro^9-Sar^10-NH2] (Ac-[d2Nal][dPhe(4-Cl)][d3Pal]S[NMeY][dK]([Suc-NH(4-amidinophenyl)])[Nle][Lys(iPr)]P[Sar]-NH2) it is 8.33.
